In PubChem BioAssay (NCI):
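Growth conditions: 96-well plates. Treatment: test compound, 48 hours, 5 concentrations. Analysis: linear interpolation between bracketing concentrations; unreached endpoints set to highest concentration. GI50 is the concentration that inhibits growth by half. TGI marks complete inhibition of growth.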

tested on: T-47D breast; assay: DTP human tumour cell line panel, 48 h

Going from `Clc1ccc(C=Nc2ccc3c(c2)Cc2ccccc2-3)c(Cl)c1` to `O=c1cc(NC2CCN(CCCc3ccccc3)CC2)c2cc(Cl)ccc2o1`, the TGI falls from over 100 µM to 38.4 µM.

Compared with `CN(C)CCN1C(=O)c2ccc3c4c(ccc(c24)C1=O)C(=O)N(CCN=C=S)C3=O`, `CCOc1cc(C(C)(C)C)ccc1C1=N[C@@](C)(c2ccc(Cl)cc2)[C@@](C)(c2ccc(Cl)cc2)N1C(=O)N1CCN(CCCS(C)(=O)=O)CC1` is 370-fold higher in TGI: 0.165 µM for the first, 61.4 µM for the second.

First: COc1ccc(/C=C/c2cc(OC)cc(=O)o2)cc1
Second: COc1ccc(/C=C/C(=O)C(CC2CCC2)C(=O)/C=C/c2ccc(OC)c(OC)c2)cc1OC
The TGI of the first is higher: over 100 µM for the first, 4.44 µM for the second.

`O=C(/C=C\c1ccc(NCc2ccc(C(=O)O)cc2)cc1)CCl` and `CC(C)C[C@H](NC(=O)/C=C/Cn1ccc2ccccc2c1=O)B(O)O` are within 1.5-fold of each other in TGI: 12.5 µM for the first, 15.3 µM for the second.

Compared with `COc1cccc(C#Cc2ccccc2C#CCCCCO)c1`, `COc1c(CCl)cc(-c2cc(=O)c3ccccc3s2)cc1CCl` is 11-fold lower in TGI: 43.1 µM for the first, 4.03 µM for the second.

First: CC1=C[C@H]2c3c(c(O)c(O)c4oc(-c5ccccc5)cc(=O)c34)[C@H](c3cc(O)c(O)c4oc(-c5ccccc5)cc(=O)c34)[C@H]2C(C)(C)C1
Second: O=C1CC2c3ccccc3CCC2c2ccccc21 (stereo unspecified)
The TGI of the first is lower: 17.1 µM for the first, over 100 µM for the second.

Going from `COc1cccc2c(=O)c3c(sc12)c(N1CCNCC1)nc1ccccc13` to `O=C1Nc2ccc(F)cc2/C1=C/c1ccc[nH]1`, the TGI rises from 4.57 µM to over 14.2 µM.

Going from `COc1cc2[nH]c(C(=O)c3cc(OC)c(OC)c(OC)c3)c(N)c2cc1C#CC1CC1` to `COc1ccc(CC2NCCc3cc(OC)c(OC)cc32)cc1Br` (stereo unspecified), the TGI falls from over 100 µM to 63.1 µM.

`CC(=O)N[C@H]1CSSC[C@@H](C(N)=O)NC(=O)[C@H](C(C)C)NC(=O)[C@H](C)NC(=O)[C@H](Cc2cnc[nH]2)NC1=O` and `Nc1nc(F)nc2c1ncn2C1OC(CO)C(O)C1O` (stereo unspecified) cannot be ordered by TGI: over 100 µM for the first, over 100 µM for the second.

First: CCn1c(SCc2ccc(C)cc2)nnc1-c1nn(-c2ccc(Cl)cc2Cl)c(-c2ccc(Cl)cc2)c1C
Second: CCn1c(-c2ccc(OC(C)=O)cc2)c(C)c2cc(OC(C)=O)ccc21
The TGI of the first is 6-fold lower: 10.1 µM for the first, 60.5 µM for the second.

First: O=c1cccc(C#CC#CC2=CCCCC2)o1
Second: Br[C](Br)(Br)[Hg][c]1ccccc1
The TGI of the first is 3-fold lower: 14.8 µM for the first, 43.7 µM for the second.

`CCCCCCCCCCCCCCCCCCOc1ccccc1CC(=O)OCC[N+]1(C)CCCC1` and `CC(=O)C(=CN1CCN(C(=O)c2ccco2)C1=S)C(C)=O` are within 1.5-fold of each other in TGI: 17 µM for the first, 12.6 µM for the second.

Going from `CN(C)CCN1C(=O)c2ccc3c4c(ccc(c24)C1=O)C(=O)N(CCN=C=S)C3=O` to `CCOc1cc(C(C)(C)C)ccc1C1=N[C@@](C)(c2ccc(Cl)cc2)[C@@](C)(c2ccc(Cl)cc2)N1C(=O)N1CCN(CCCS(C)(=O)=O)CC1`, the GI50 rises from 29.9 nM to 9210 nM (310-fold).

First: O=C(/C=C\c1ccc(NCc2ccc(C(=O)O)cc2)cc1)CCl
Second: COc1ccc(/C=C/C(=O)C(CC2CCC2)C(=O)/C=C/c2ccc(OC)c(OC)c2)cc1OC
The GI50 of the first is 1.9-fold higher: 2600 nM for the first, 1390 nM for the second.

`COc1cccc(C#Cc2ccccc2C#CCCCCO)c1` and `O=c1cc(NC2CCN(CCCc3ccccc3)CC2)c2cc(Cl)ccc2o1` are within 1.5-fold of each other in GI50: 18500 nM for the first, 12500 nM for the second.

`CC(C)C[C@H](NC(=O)/C=C/Cn1ccc2ccccc2c1=O)B(O)O` and `COc1cccc2c(=O)c3c(sc12)c(N1CCNCC1)nc1ccccc13` are within 1.5-fold of each other in GI50: 2680 nM for the first, 1900 nM for the second.

First: CC1=C[C@H]2c3c(c(O)c(O)c4oc(-c5ccccc5)cc(=O)c34)[C@H](c3cc(O)c(O)c4oc(-c5ccccc5)cc(=O)c34)[C@H]2C(C)(C)C1
Second: CCn1c(SCc2ccc(C)cc2)nnc1-c1nn(-c2ccc(Cl)cc2Cl)c(-c2ccc(Cl)cc2)c1C
The GI50 of the first is 2.4-fold higher: 1020 nM for the first, 428 nM for the second.

Going from `COc1cc2[nH]c(C(=O)c3cc(OC)c(OC)c(OC)c3)c(N)c2cc1C#CC1CC1` to `CC(=O)N[C@H]1CSSC[C@@H](C(N)=O)NC(=O)[C@H](C(C)C)NC(=O)[C@H](C)NC(=O)[C@H](Cc2cnc[nH]2)NC1=O`, the GI50 rises from 3020 nM to over 100000 nM.

Going from `Nc1nc(F)nc2c1ncn2C1OC(CO)C(O)C1O` (stereo unspecified) to `O=C1Nc2ccc(F)cc2/C1=C/c1ccc[nH]1`, the GI50 falls from over 56000 nM to 1030 nM.

First: O=c1cccc(C#CC#CC2=CCCCC2)o1
Second: Br[C](Br)(Br)[Hg][c]1ccccc1
The GI50 of the first is 3.5-fold lower: 2730 nM for the first, 9560 nM for the second.

`CCCCCCCCCCCCCCCCCCOc1ccccc1CC(=O)OCC[N+]1(C)CCCC1` and `CC(=O)C(=CN1CCN(C(=O)c2ccco2)C1=S)C(C)=O` are within 1.5-fold of each other in GI50: 3000 nM for the first, 3650 nM for the second.

tested on: HOP-18 NSCLC; assay: DTP human tumour cell line panel, 48 h

`O=C1[C@@H]2C(c3ccccc3F)=NO[C@@H]2C(=O)N1c1ccc(Cc2ccc(N3C(=O)[C@H]4C(c5ccccc5F)=NO[C@H]4C3=O)cc2)cc1` and `Clc1ccc2c(c1)-c1c3c(nn1-c1ccccc1)-c1ccccc1SC3O2` (stereo unspecified) cannot be ordered by TGI: over 100 µM for the first, over 100 µM for the second.

`C=CCc1ccc(Oc2cc(CC=C)c3c(c2O)O[C@@H](CO)[C@H]3c2ccc(O)c(-c3cc(CC=C)ccc3O)c2)cc1` and `COc1ccc(OC)c2c(C(=O)O)c(Cc3ccccc3)ccc12` cannot be ordered by TGI: over 100 µM for the first, over 100 µM for the second.

`O=C(NCO)NCOCn1c(=O)n(CO)c(=O)n(CO)c1=O` and `CCOC(=O)NC(=O)c1cn(CCCOC(=O)CCCCCCCCCCC(=O)OCCCn2cc(C(=O)NC(=O)OCC)c(=O)[nH]c2=O)c(=O)[nH]c1=O` cannot be ordered by TGI: over 100 µM for the first, over 100 µM for the second.

`O=C1OC2CCCC[C@@H]2C2C[C@]34CCCCC3[C@@H](C(=O)O4)C12` (stereo partly specified) and `S=C1OC2CCCC[C@H]2O1` (stereo partly specified) cannot be ordered by TGI: over 100 µM for the first, over 100 µM for the second.

`CN(C)c1cc[c]([Sn]([c]2ccc(N(C)C)cc2)([c]2ccc(N(C)C)cc2)[c]2ccc(N(C)C)cc2)cc1` and `CCN(CC)c1ccc(N=Nc2ccc(-c3nc4ccc[n+](C)c4s3)cc2)cc1` are within 1.5-fold of each other in TGI: 32.9 µM for the first, 31.3 µM for the second.

`C/C(N=NC(=S)N(C)C)=C1\C=CC=CN1O` and `O=C1CCC(O)=C1N=Nc1ccccc1` cannot be ordered by TGI: over 100 µM for the first, over 100 µM for the second.

`NC(=O)NCc1c(C(N)=O)ncn1Cc1ccccc1` and `O=C(O)[C@H](NS(=O)(=O)c1ccc([N+](=O)[O-])cc1)c1ccccc1` cannot be ordered by TGI: over 100 µM for the first, over 100 µM for the second.

`COc1ccc2nc(NC(=O)C(=O)C(C#N)c3ccc([N+](=O)[O-])cc3)sc2c1` (stereo unspecified) and `O=C1/C(=C/c2cccc([N+](=O)[O-])c2)COc2ccc(Br)cc21` cannot be ordered by TGI: over 100 µM for the first, over 100 µM for the second.

First: N#Cc1cccnc1Cl
Second: Cc1c(C(=O)/C=C/c2ccccc2)[n+](=O)c2ccccc2n1[O-]
The TGI of the first is higher: over 100 µM for the first, 57 µM for the second.

Compared with `CCCCCCCCCCCC(=O)OCC1OC(OC)C(NC(=O)N(CCCl)N=O)C(O)C1O` (stereo unspecified), `C=CC/C=C/C/C=C/CCCCCCCc1cccc(O)c1C(=O)O` is lower in TGI: over 100 µM for the first, 65.3 µM for the second.

`C1C[OH+]CC[OH+]CC[OH+]CC[OH+]CC[OH+]1.[Cl-].[V]` and `COc1ccc(CC2NCCc3cc(OC)c(OC)cc32)cc1Br` (stereo unspecified) cannot be ordered by TGI: over 100 µM for the first, over 100 µM for the second.

In order of rising GI50:
1. CN(C)c1cc[c]([Sn]([c]2ccc(N(C)C)cc2)([c]2ccc(N(C)C)cc2)[c]2ccc(N(C)C)cc2)cc1  8.77 µM
2. C1C[OH+]CC[OH+]CC[OH+]CC[OH+]CC[OH+]1.[Cl-].[V]  60.6 µM
